Source: paper PMC6355875 (Scientific Reports, 2019)

Experiments:
Format in all cases: cell-based
hPPAR-δ = molecular target: T1, hPPAR-δ (Homo sapiens, UniProt Q03181); assay: GAL4-DBD hPPARδ/LBD luciferase reporter assay in HEK293T cells; settings: for EC50: activation, HEK293T reporter, overnight; for hPPAR subtype profile: from EC50 on hPPAR-δ, -α, -γ
T1 construct: expressed in transfected cells; host or cells: HEK293T
T1 sequence (Q03181 147-441): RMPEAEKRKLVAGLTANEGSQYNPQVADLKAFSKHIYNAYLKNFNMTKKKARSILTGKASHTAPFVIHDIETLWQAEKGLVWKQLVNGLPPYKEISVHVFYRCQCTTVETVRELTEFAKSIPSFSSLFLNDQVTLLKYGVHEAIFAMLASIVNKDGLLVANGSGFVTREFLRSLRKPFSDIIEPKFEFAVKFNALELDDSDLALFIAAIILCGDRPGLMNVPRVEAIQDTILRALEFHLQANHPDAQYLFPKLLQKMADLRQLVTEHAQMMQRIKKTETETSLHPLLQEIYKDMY
Description: (§1) A GAL4-DNA Binding Domain (GAL4-DBD) fusion protein was constructed for each PPAR family member. To assess compound activity, each construct was co-transfected into HEK293T cells (American Type Culture Collection; Manassass, VA) along with the reporter construct, pGL5 (Promega) using Fugene 6 (Promega) as a transfection reagent and the manufacturer’s protocol. An eleven point dilution series of each compound was added to the cells and incubated overnight. Luciferase levels were then determined following the addition of Bright-Glo (Promega) using the manufacturer’s recommendations.

hPPAR-α = molecular target: T2, hPPAR-α (Homo sapiens, UniProt Q07869); assay: GAL4-DBD hPPARα/LBD luciferase reporter assay in HEK293T cells; settings: activation, overnight
T2 construct: expressed in transfected cells; host or cells: HEK293T
T2 sequence (Q07869 175-468): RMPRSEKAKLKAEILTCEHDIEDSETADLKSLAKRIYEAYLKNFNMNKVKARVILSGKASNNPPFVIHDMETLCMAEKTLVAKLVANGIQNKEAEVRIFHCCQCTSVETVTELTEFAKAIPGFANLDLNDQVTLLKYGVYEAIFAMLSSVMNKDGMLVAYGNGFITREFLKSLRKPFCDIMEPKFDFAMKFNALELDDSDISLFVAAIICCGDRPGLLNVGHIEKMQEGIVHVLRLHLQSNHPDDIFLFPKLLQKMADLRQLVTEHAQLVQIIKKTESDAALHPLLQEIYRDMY
Description: as §1

hPPAR-γ = molecular target: T3, hPPAR-γ (Homo sapiens, UniProt P37231); assay: GAL4-DBD hPPARγ/LBD luciferase reporter assay in HEK293T cells; settings: activation, overnight
T3 construct: expressed in transfected cells; host or cells: HEK293T
T3 sequence (P37231 184-477 isoform P37231-2): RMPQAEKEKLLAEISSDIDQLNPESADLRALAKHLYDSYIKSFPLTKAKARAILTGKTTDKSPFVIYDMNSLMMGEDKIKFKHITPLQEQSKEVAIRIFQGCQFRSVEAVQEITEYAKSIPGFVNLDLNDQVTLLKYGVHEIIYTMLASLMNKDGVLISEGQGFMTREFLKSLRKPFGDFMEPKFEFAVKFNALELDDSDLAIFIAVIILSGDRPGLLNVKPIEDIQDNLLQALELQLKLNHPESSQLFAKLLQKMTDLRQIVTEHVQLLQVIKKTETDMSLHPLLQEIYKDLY
Description: as §1

Row | Structure (SMILES) | EC50 (hPPAR-δ) [µM] | EC50 (hPPAR-α) [µM] | EC50 (hPPAR-γ) [µM] | hPPAR subtype profile (hPPAR-δ)
1 | O=C(Nc1ccccc1O)C1CCN(C(=O)c2ccc(OCC3CCCO3)cc2)CC1 (centres unmarked) [GNF-9448, OC1=CC=CC=C1NC(=O)C1CCN(CC1)C(=O)C1=CC=C(OCC2CCCO2)C=C1] | 0.883 | 7.06 | 0.937 | –
2 | COc1cc(/C=C2/S/C(=N/c3ccccc3)NC2=O)ccc1OCc1cccc(C(=O)O)c1 [GNF-5758, COC1=CC(C=C2SC(NC2=O)=NC2=CC=CC=C2)=CC=C1OCC1=CC=CC(=C1)C(O)=O] | 4.33 | 6.93 | 9.73 | –
3 | O=C(NCc1ccc(COCC(F)(F)F)cc1)c1cc(-c2ccccc2)[nH]n1 [GNF-3632, FC(F)(F)COCC1=CC=C(CNC(=O)C2=NNC(=C2)C2=CC=CC=C2)C=C1] | 0.007 | 5.48 | > 10 | agonists of hPPAR-δ and hPPAR-α only
4 | O=C(Nc1ccccc1O)C1CCN(C(=O)COc2ccc(F)cc2)CC1 [GNF-5891, OC1=CC=CC=C1NC(=O)C1CCN(CC1)C(=O)COC1=CC=C(F)C=C1] | 0.013 | > 10 | 7.28 | –
5 | COc1ccc(N2CCN(C(=O)CSc3nnc(COc4ccc(Cl)cc4C)[nH]3)CC2)cc1 [GNF-7486, COC1=CC=C(C=C1)N1CCN(CC1)C(=O)CSC1=NN=C(COC2=CC=C(Cl)C=C2C)N1] | 0.018 | > 10 | > 10 | –
6 | O=C(O)Cc1csc(SCc2cc(F)cc3c2OC(c2ccccc2)OC3)n1 (centres unmarked) [GNF-1051, OC(=O)CC1=CSC(SCC2=CC(F)=CC3=C2OC(OC3)C2=CC=CC=C2)=N1] | 7.76 | 7.33 | > 10 | –
7 | Cc1cccc(OCCNC(=O)COc2ccc(CC(=O)O)cc2)c1 [GNF-0242, CC1=CC=CC(OCCNC(=O)COC2=CC=C(CC(O)=O)C=C2)=C1] | – | > 10 | > 10 | –
8 | COCCCn1c(SCc2cccc(C(=O)O)c2)nc2sc3c(c2c1=O)CCCS3 [GNF-5154, COCCCN1C(=O)C2=C(SC3=C2CCCS3)N=C1SCC1=CC=CC(=C1)C(O)=O] | 7.04 | – | – | –
9 | O=[N+]([O-])c1cc(S(=O)(=O)N2CCCC2)ccc1OCC(O)CNCc1ccc(F)cc1 (centres unmarked) [GNF-9594, OC(CNCC1=CC=C(F)C=C1)COC1=CC=C(C=C1[N+]([O-])=O)S(=O)(=O)N1CCCC1] | 4.6 | > 10 | > 10 | –
10 | O=C(OCC(=O)c1ccc(O)cc1O)c1ccc(COc2ccc3ccccc3c2)o1 [GNF-6928, OC1=CC=C(C(=O)COC(=O)C2=CC=C(COC3=CC=C4C=CC=CC4=C3)O2)C(O)=C1] | 3.7 | 6.9 | 3.78 | –
11 | Cc1cc(C(=O)COC(=O)c2ccc(O)cc2O)c(C)n1Cc1ccc(F)cc1 [GNF-9969, CC1=CC(C(=O)COC(=O)C2=CC=C(O)C=C2O)=C(C)N1CC1=CC=C(F)C=C1] | 9.48 | 6.94 | 1.01 | –
12 | Cc1ccc(C(=O)Nc2cccc(CNCc3ccc(OC(F)(F)F)cc3)c2)cc1 [GNF-0341, CC1=CC=C(C=C1)C(=O)NC1=CC=CC(CNCC2=CC=C(OC(F)(F)F)C=C2)=C1] | 0.011 | > 10 | 1.26 | agonists of hPPAR-δ and hPPAR-γ only
13 | O=C(COc1ccc(C(=O)O)cc1)NC(c1ccccc1)c1ccc(Cl)cc1 (centres unmarked) [GNF-0248, OC(=O)C1=CC=C(OCC(=O)NC(C2=CC=CC=C2)C2=CC=C(Cl)C=C2)C=C1] | 7.55 | 7.04 | > 10 | –
14 | CCCOc1c(/C=C/C(=O)c2ccc(SCC(=O)O)c(OC)c2)cccc1OCC [GNF-1676, CCCOC1=C(OCC)C=CC=C1C=CC(=O)C1=CC=C(SCC(O)=O)C(OC)=C1] | 8.39 | 6.19 | 1.29 | –
15 | CC(C(=O)Nc1ccc(SC(F)F)cc1)N1CC=C(c2ccc(O)cc2)CC1 (centres unmarked) [GNF-8208, CC(N1CCC(=CC1)C1=CC=C(O)C=C1)C(=O)NC1=CC=C(SC(F)F)C=C1] | 7.86 | > 10 | > 10 | –
16 | CCOc1cc(/C=C/C(=O)O)ccc1OCc1ccc(C(C)(C)C)cc1 [GNF-4516, CCOC1=CC(C=CC(O)=O)=CC=C1OCC1=CC=C(C=C1)C(C)(C)C] | 6.82 | 2.33 | > 10 | –
17 | COc1ccc(C(=O)/C=C/c2c(C)nn(-c3ccccc3)c2Cl)cc1CSCC(=O)O [GNF-4909, COC1=CC=C(C=C1CSCC(O)=O)C(=O)C=CC1=C(Cl)N(N=C1C)C1=CC=CC=C1] | 8.24 | 0.825 | 1.83 | –
18 | O=C(NCCCCOc1ccc(F)cc1)c1ccc([N+](=O)[O-])c(O)c1 [GNF-7176, OC1=CC(=CC=C1[N+]([O-])=O)C(=O)NCCCCOC1=CC=C(F)C=C1] | 7.24 | > 10 | > 10 | –
19 | O=C(CN1CCN(c2ccc(O)cc2)CC1)NCC1(N2CCOCC2)CCCCC1 [GNF-8501, OC1=CC=C(C=C1)N1CCN(CC(=O)NCC2(CCCCC2)N2CCOCC2)CC1] | 0.006 | > 10 | > 10 | –
20 | CCOc1cccc(/C=N/c2cccc(-c3csc(/N=C/c4cccc(OCC)c4O)n3)c2)c1O [GNF-6878, CCOC1=CC=CC(C=NC2=NC(=CS2)C2=CC=CC(=C2)N=CC2=CC=CC(OCC)=C2O)=C1O] | 0.008 | > 10 | > 10 | –
21 | COc1ccc(CNCc2ccc(Oc3cccnc3)c(F)c2)cc1O [GNF-8065, COC1=CC=C(CNCC2=CC=C(OC3=CC=CN=C3)C(F)=C2)C=C1O] | – | > 10 | > 10 | –
22 | Cc1cc(C(=O)COc2ccc(C(=O)O)cc2)c(C)n1CCC1=CCCCC1 [GNF-9057, CC1=CC(C(=O)COC2=CC=C(C=C2)C(O)=O)=C(C)N1CCC1=CCCCC1] | 7.49 | 4.63 | 8.59 | –
23 | Cc1ccc(-c2nc(SCCCC(=O)N3CCOCC3)[nH]c2-c2ccc(C)cc2)cc1 [GNF-9820, CC1=CC=C(C=C1)C1=C(N=C(N1)SCCCC(=O)N1CCOCC1)C1=CC=C(C)C=C1] | 0.012 | > 10 | > 10 | –
24 | O=C(Nc1cccc(CNCC(c2cccs2)N2CCOCC2)c1)c1ccc(Cl)cc1 (centres unmarked) [GNF-6029, ClC1=CC=C(C=C1)C(=O)NC1=CC=CC(CNCC(N2CCOCC2)C2=CC=CS2)=C1] | 0.012 | > 10 | > 10 | –
25 | COc1cc(CNCc2cc(C)on2)ccc1OCC(=O)Nc1ccc(Br)cc1 [GNF-6952, COC1=CC(CNCC2=NOC(C)=C2)=CC=C1OCC(=O)NC1=CC=C(Br)C=C1] | 0.019 | 7.56 | > 10 | agonists of hPPAR-δ and hPPAR-α only
